Data published in PubChem BioAssay AID248 (DTP/NCI, 2004).
Values joined by “and” are separate entries in the source; they are usually repeats but may differ in a detail not shown here. Equal values may be shown once. Toxic doses and inconclusive results are not listed. No stated cut-off is given here; in the data, active means T/C of 150% or more; inactive means T/C below 125%.

Tested on: L1210 leukemia ip in BDF1 mice, survival T/C
Test: NCI In Vivo Anticancer Drug Screen. Data for tumor model L1210 Leukemia (intraperitoneal) in B6D2F1 (BDF1) mice
Conditions: endpoint: mean survival time, higher = longer survival
Summary of the method: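 Mice bearing the transplanted tumor received compound or vehicle. Survival of the treated group was divided by that of the vehicle-treated control group to give the ratio.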

[1] = dose: 100.0 mg/kg/injection, schedule: Q04DX002 (ip), vehicle: Klucel (hydroxypropylcellulose) (HPC)
[2] = dose: 200.0 mg/kg/injection, schedule: Q04DX002 (ip), vehicle: Klucel (hydroxypropylcellulose) (HPC)
[3] = dose: 400.0 mg/kg/injection, schedule: Q04DX002 (ip), vehicle: Klucel (hydroxypropylcellulose) (HPC)
[4] = dose: 100.0 mg/kg/injection, schedule: Q04DX002 (ip), vehicle: saline with Tween-80
[5] = dose: 200.0 mg/kg/injection, schedule: Q04DX002 (ip), vehicle: saline with Tween-80
[6] = dose: 400.0 mg/kg/injection, schedule: Q04DX002 (ip), vehicle: saline with Tween-80
[7] = dose: 100.0 mg/kg/injection, schedule: Q01DX001 (ip), vehicle: Klucel (hydroxypropylcellulose) (HPC)
[8] = dose: 200.0 mg/kg/injection, schedule: Q01DX001 (ip), vehicle: Klucel (hydroxypropylcellulose) (HPC)
[9] = dose: 400.0 mg/kg/injection, schedule: Q01DX001 (ip), vehicle: Klucel (hydroxypropylcellulose) (HPC)
[10] = dose: 100.0 mg/kg/injection, schedule: Q01DX001 (ip), vehicle: saline
[11] = dose: 200.0 mg/kg/injection, schedule: Q01DX001 (ip), vehicle: saline
[12] = dose: 400.0 mg/kg/injection, schedule: Q01DX001 (ip), vehicle: saline
[13] = dose: 50.0 mg/kg/injection, schedule: Q04DX003 (ip), vehicle: Klucel (hydroxypropylcellulose) (HPC)
[14] = dose: 100.0 mg/kg/injection, schedule: Q04DX003 (ip), vehicle: Klucel (hydroxypropylcellulose) (HPC)
[15] = dose: 200.0 mg/kg/injection, schedule: Q04DX003 (ip), vehicle: Klucel (hydroxypropylcellulose) (HPC)
[16] = dose: 100.0 mg/kg/injection, schedule: Q01DX009 (ip), vehicle: Klucel (hydroxypropylcellulose) (HPC)
[17] = dose: 200.0 mg/kg/injection, schedule: Q01DX009 (ip), vehicle: Klucel (hydroxypropylcellulose) (HPC)
[18] = dose: 400.0 mg/kg/injection, schedule: Q01DX009 (ip), vehicle: Klucel (hydroxypropylcellulose) (HPC)

Measured: T/C

O=C1OC(=O)C2C1C1CCC2(C2OCCO2)O1 (centres undefined)
inactive: [1] 93 % of control | [2] 101 % of control | [3] 101 % of control

COC(=O)C1(C)CCc2c(ccc3ccccc23)C1=O (centres undefined)
inactive: dose: 100.0 mg/kg/injection, schedule: Q01DX009 (ip), vehicle: saline 100 % of control | dose: 100.0 mg/kg/injection, schedule: Q04DX003 (ip), vehicle: saline 97 % of control | dose: 200.0 mg/kg/injection, schedule: Q01DX009 (ip), vehicle: saline 102 % of control | dose: 200.0 mg/kg/injection, schedule: Q04DX003 (ip), vehicle: saline 94 % of control | dose: 400.0 mg/kg/injection, schedule: Q01DX009 (ip), vehicle: saline 99 % of control | dose: 400.0 mg/kg/injection, schedule: Q04DX003 (ip), vehicle: saline 102 % of control

O=C(CCCC(=O)NO)NO
inactive: [4] 113 % of control | dose: 100.0 mg/kg/injection, schedule: Q04DX002 (ip), vehicle: saline 100 % of control | [5] 100 % of control | dose: 200.0 mg/kg/injection, schedule: Q04DX002 (ip), vehicle: saline 97 % of control | [6] 97 % of control | dose: 400.0 mg/kg/injection, schedule: Q04DX002 (ip), vehicle: saline 113 % of control

CC(C)(C)C1=NN=C(C(C)(C)C)CS(=O)C1
inactive: [1] 90 % of control | [2] 97 % of control | [3] 101 % of control

CCCCCC(=O)OCCOC(=O)CCCCC
inactive: dose: 100.0 mg/kg/injection, schedule: Q01DX009 (ip), vehicle: saline with Tween-80 103 % of control | dose: 200.0 mg/kg/injection, schedule: Q01DX009 (ip), vehicle: saline with Tween-80 101 % of control | dose: 400.0 mg/kg/injection, schedule: Q01DX009 (ip), vehicle: saline with Tween-80 92 % of control

CN(C)c1ccc(/C=C(\C#N)c2ccc([N+](=O)[O-])cc2)c(Cl)c1
inactive: dose: 100.0 mg/kg/injection, schedule: Q04DX003 (ip), vehicle: saline with Tween-80 91 % of control | dose: 200.0 mg/kg/injection, schedule: Q04DX003 (ip), vehicle: saline with Tween-80 96 % of control | dose: 400.0 mg/kg/injection, schedule: Q04DX003 (ip), vehicle: saline with Tween-80 96 % of control

COC(=O)NS(=O)(=O)c1cccs1
inactive: dose: 100.0 mg/kg/injection, schedule: Q04DX002 (ip), vehicle: other 98 % of control | dose: 200.0 mg/kg/injection, schedule: Q04DX002 (ip), vehicle: other 94 % of control | dose: 400.0 mg/kg/injection, schedule: Q04DX002 (ip), vehicle: other 102 % of control

CCN(CCCl)CCNc1c2ccccc2nc2c1ccc1ccccc12
inactive: dose: 1.25 mg/kg/injection, schedule: Q01DX005 (ip), vehicle: saline 116 % of control | dose: 2.5 mg/kg/injection, schedule: Q01DX005 (ip), vehicle: saline 115 % of control | dose: 5.0 mg/kg/injection, schedule: Q01DX005 (ip), vehicle: saline 107 % of control

Clc1ccc(SCSc2nc3ccccc3s2)cc1
inactive: dose: 25.0 mg/kg/injection, schedule: Q04DX002 (ip), vehicle: Klucel (hydroxypropylcellulose) (HPC) 105 % of control | dose: 50.0 mg/kg/injection, schedule: Q04DX002 (ip), vehicle: Klucel (hydroxypropylcellulose) (HPC) 86 % of control | [1] 93 % of control

O=C1OC(c2ccc(F)c3ccccc23)C2CCCCC12 (centres undefined)
inactive: [7] 102 % of control | [8] 102 % of control | [9] 96 % of control

COc1ccc(C(CCCC(=O)O)c2ccc(OC)cc2)cc1
inactive: [10] 112 % of control | [11] 104 % of control | [12] 104 % of control

CC(=O)OC1CCC(N)CC1 (centres undefined)
inactive: dose: 100.0 mg/kg/injection, schedule: Q01DX001 (ip), vehicle: other 98 % of control | dose: 200.0 mg/kg/injection, schedule: Q01DX001 (ip), vehicle: other 96 % of control | dose: 400.0 mg/kg/injection, schedule: Q01DX001 (ip), vehicle: other 96 % of control

O=C1C(=O)c2ccccc2-c2ccccc21
inactive: [13] 98 % of control | [14] 97 % of control | [15] 98 % of control

CCCCCCCCCCCCCCCC[N+]1(CC)CCOCC1
inactive: dose: 5.0 mg/kg/injection, schedule: Q01DX001 (ip), vehicle: Klucel (hydroxypropylcellulose) (HPC) 97 % of control | dose: 5.0 mg/kg/injection, schedule: Q01DX001 (ip), vehicle: saline 100 % of control | dose: 5.0 mg/kg/injection, schedule: Q01DX009 (ip), vehicle: Klucel (hydroxypropylcellulose) (HPC) 98 % of control and 103 % of control | dose: 10.0 mg/kg/injection, schedule: Q01DX001 (ip), vehicle: Klucel (hydroxypropylcellulose) (HPC) 113 % of control | dose: 10.0 mg/kg/injection, schedule: Q01DX001 (ip), vehicle: saline 103 % of control | dose: 10.0 mg/kg/injection, schedule: Q01DX009 (ip), vehicle: saline 121 % of control and 88 % of control | dose: 10.0 mg/kg/injection, schedule: Q04DX002 (ip), vehicle: Klucel (hydroxypropylcellulose) (HPC) 98 % of control and 108 % of control | dose: 10.0 mg/kg/injection, schedule: Q04DX002 (ip), vehicle: saline 95 % of control | dose: 20.0 mg/kg/injection, schedule: Q01DX001 (ip), vehicle: Klucel (hydroxypropylcellulose) (HPC) 111 % of control | dose: 20.0 mg/kg/injection, schedule: Q01DX001 (ip), vehicle: saline 103 % of control | dose: 20.0 mg/kg/injection, schedule: Q04DX002 (ip), vehicle: Klucel (hydroxypropylcellulose) (HPC) 98 % of control and 101 % of control | dose: 20.0 mg/kg/injection, schedule: Q04DX002 (ip), vehicle: saline 102 % of control | dose: 40.0 mg/kg/injection, schedule: Q04DX002 (ip), vehicle: Klucel (hydroxypropylcellulose) (HPC) 90 % of control | dose: 40.0 mg/kg/injection, schedule: Q04DX002 (ip), vehicle: saline 95 % of control and 98 % of control | [2] 93 % of control | [3] 88 % of control

CC/C(C)=C\CC/C(C)=C/COc1cccc(CC)c1
inactive: [4] 100 % of control | [5] 94 % of control | [6] 94 % of control

CNC(=S)NN=C(c1ccccc1)c1ccccc1
inactive: [7] 95 % of control | [16] 91 % of control | [14] 93 % of control | [8] 90 % of control | [17] 89 % of control | [15] 87 % of control | [9] 87 % of control | [18] 93 % of control | dose: 400.0 mg/kg/injection, schedule: Q04DX003 (ip), vehicle: Klucel (hydroxypropylcellulose) (HPC) 96 % of control

CCSCN1CCN(CSCC)C(C)C1 (centres undefined)
inactive: [10] 104 % of control | [11] 106 % of control | [12] 112 % of control

CCOC(=O)C1CC2(c3ccccc3)C(c3ccccc3)=C(c3ccccc3)C1(c1ccccc1)C2O (centres undefined)
inactive: dose: 50.0 mg/kg/injection, schedule: Q01DX001 (ip), vehicle: carboxymethylcellulose (CMC) 94 % of control | dose: 100.0 mg/kg/injection, schedule: Q01DX001 (ip), vehicle: carboxymethylcellulose (CMC) 94 % of control | dose: 200.0 mg/kg/injection, schedule: Q01DX001 (ip), vehicle: carboxymethylcellulose (CMC) 103 % of control | dose: 400.0 mg/kg/injection, schedule: Q01DX001 (ip), vehicle: carboxymethylcellulose (CMC) 94 % of control

Clc1ccc(CSc2nc3ccccc3[nH]2)cc1
inactive: [16] 94 % of control | [17] 103 % of control | [18] 103 % of control

Cc1cccc(Nc2cc(Cl)nc(N)n2)c1
inactive: dose: 100.0 mg/kg/injection, schedule: Q01DX Z (ip), vehicle: methylcellulose (MC) 97 % of control | dose: 200.0 mg/kg/injection, schedule: Q01DX Z (ip), vehicle: methylcellulose (MC) 89 % of control

O=C(O)CCl
inactive: dose: 50.0 mg/kg/injection, schedule: Q01DX001 (ip), vehicle: saline 98 % of control | [10] 104 % of control

CC1(C)C/C(=N/O)C/C(=N\O)C1
inactive: dose: 25.0 mg/kg/injection, schedule: Q04DX003 (ip), vehicle: Klucel (hydroxypropylcellulose) (HPC) 95 % of control | [13] 96 % of control
